Measured values published in patent US7576224B2, “Insecticidal (dihalopropenyl) phenylalkyl substituted dihydrobenzofuran and dihydrobenzopyran derivatives” (FMC Corporation, priority 2003, dated 2009).

What was measured:
[1] = system: tobacco budworm (Heliothis virescens [Fabricius]); assay: Surface-treated diet test against tobacco budworm; format: in vivo; settings: 0.25 millimolar on the surface of the diet, second instar larvae, five-day exposure; for Percent Growth Inhibition: insect weight relative to untreated controls
Description: Surface-Treated Diet Test Against Tobacco Budworm
The test compounds of formula I are identified by numbers that correspond to those in Table 1.

[2] = system: tobacco budworm (Heliothis virescens [Fabricius]); assay: Foliar treated test against tobacco budworm (chick pea plants); format: in vivo; settings: rate of application 30 ppm; foliage; 96 hour exposure
Description: (§1) Foliar Treated Test Against Tobacco Budworm and Cabbage Looper
(§2) Nine-to-ten day-old chick pea plants (Cicer arietinum) were sprayed at 15 psi to runoff on both upper and lower leaf surfaces with solutions of test compound to provide application rates as high as 1000 ppm of test chemical. The solvent used to prepare the solutions of test compound was 10% acetone or methanol (v/v) and 0.1% of the surfactant octylphenoxypolyethoxyethanol in distilled water. Four replicates, each containing one chick pea plant, for each rate of application of test compound were sprayed. The treated plants were transferred to a hood where they were kept until the spray had dried.
(§3) The four chick pea plants for each replicate treated with test compound as described above were removed from their pots by cutting the stems just above the soil line. The excised leaves and stems from the four plants in each replicate were placed in individual 237 mL (8-ounce) paper cups, which contained a moistened filter paper. Five second-instar (7 days old) tobacco budworms or cabbage loopers (7 days old) were counted into each cup, taking care not to cause injury. An opaque plastic lid was placed on each cup, which was then held in a growth chamber for a 96 hour exposure period at 25° C., 50% relative humidity and photo-period of 12 hours light and 12 hours dark. At the end of the 96 hour exposure period the cups were opened, and the numbers of dead, moribund, and live insects were counted. Using the insect counts, the efficacy of the test compound was expressed in percent control. Percent control is derived from the total number of dead insects (TD) plus the total number of moribund insects (TM) as compared to the total number of insects (TI) in the test:
(§4) The condition of the test plants was also observed for phytotoxicity and for reduction of feeding damage as compared to an untreated control.

[3] = system: cabbage looper (Trichoplusia ni [Hubner]); assay: Foliar treated test against cabbage looper (chick pea plants); format: in vivo; settings: rate of application 30 ppm; foliage; 96 hour exposure
Description: as §1, §2, §3, §4

[4] = system: Diamondback Moth (Plutella xylostella); assay: Foliar treated test against diamondback moth (cabbage leaf discs); format: in vivo; settings: rate of application 30 ppm; foliage; 96 hour exposure
Experimental: Four replicates, each containing one cabbage leaf disc, for each rate of application of test compound were dipped. The four cabbage leaf discs for each replicate treated were immersed for five seconds in the solution of test compound as described above. Each discs was then placed in individual 50 mm Petrie dishes containing a filter paper 42.5 mm in diameter that had been moistened with 100 μL of water. The uncovered Petrie dishes were then set aside until the leaf discs were dry. After this time, two third-instar diamondback moth larvae (10-14 days old) were carefully placed on each leaf disc. A tight-fitting lid was then placed on each Petrie dish, which was which was then held in a growth chamber for a 96 hour exposure period at 25° C., 50% relative humidity and photo-period of 12 hours light and 12 hours dark. At the end of the 96 hour exposure period the Petrie dishes were uncovered, and the numbers of dead, moribund, and live insects were counted. Using the insect counts, the efficacy of the test compound was expressed in percent control by methods set forth above in tests against the tobacco budworm and cabbage looper.

cabbage looper = assay: Whole plant foliar treated test against cabbage looper; format: in vivo, Trichoplusia ni; settings: cabbage plants sprayed, 96 hour exposure; for Percent Control at 25 g: rate of application 25 g; for Percent Control at 50 g: rate of application 50 g; for Percent Control at 100 g: rate of application 100 g
Experimental: Whole Plant Foliar Treated Test Against Cabbage Looper
For each rate of application of test compound, a 15 mL aliquot of test solution was prepared. Sufficient test compound was dissolved in 1.5 mL of acetone to provide an application rate as high as 1000 grams/Ha. Each solution was then added to 13.5 mL of water containing 300 ppm of a surfactant. There were four replicates for each rate of application of test compound, and all tests included a known chemical standard as well as a standard of water and surfactant and untreated checks.
A maximum of 14 appropriately sized cabbage plants for each rate of application and replicate were arranged in a 28 pot plastic flat and sprayed with the 15 mL sample of test compound using an traveling boom sprayer equipped with a cone spray tip at a rate of 30 gallons/acre under a pressure of 40-44 psi. The untreated checks were sprayed first, followed by the test compounds and standards, all in order of lowest to highest rates of application. Once the spraying was complete, the test plants were allowed to air-dry on the conveyor on which they were sprayed.
For each rate of application and replication, sufficient Petrie dishes, 50×9 mm in size, were lined with filter paper disks and each were moistened with 0.5 mL of distilled water. From each replicate cabbage plant at least three 2.5 cm disks were cut Each leaf disk was then placed in an individual Petrie dishes with the adaxial side of the leaf facing up. Following placement of the leaf disks, two neonate cabbage looper larvae were placed on each disk. Upon completion of infestation each Petrie dish was covered and held in a growth chamber for a 96 hour exposure period at 25° C., 40%-60% relative humidity and photo-period of 12 hours light and 12 hours dark. At the end of the 96 hour exposure period the Petrie dishes were opened, and the numbers of dead, moribund, and live insects were counted. Using the insect counts, the efficacy of the test compound was expressed in percent control. Percent control is derived from the total number of dead insects (TD) plus the total number of moribund insects (TM) as compared to the total number of insects (TI) in the test:
[formula] The condition of the test plants was also observed for phytotoxicity and for reduction of feeding damage as compared to an untreated control.

[5] = Photostability (rate of photolysis, thin film on glass, Suntest CPS illuminator); format: physicochemical; settings: for Percent of Compound 12 Half-life: relative photolysis half-life compared to compound 12; for Photolysis Half-life: thin film on glass coverslips, filtered xenon lamp, about 25° C.
Experimental: These tests were conducted in the following manner:
For each compound tested, three glass microscope coverslips (12 mm in diameter) for each illumination period (1, 3, 6, 12, and 24 hours) were spotted with 10 microliters of a one mg/mL acetonitrile or methanol solution of test compound. Three coverslips were also spotted with test compound and were not illuminated. The material on these non-illuminated coverslips was analyzed at the end of the experiment as described below to determine the test compound stability on glass. The solvents in each 10 microliter solution on each coverslip were allowed to evaporate leaving a thin film of test compound on each coverslip. Three of the coverslips representing the zero hour illumination period were then placed in a 20 mL scintillation vial. In the vial was placed one mL of acetonitrile, which extracted the test chemical from the coverslip. The solution was then transferred to a two-dram vial for analysis by HPLC. The average HPLC peak area generated by this sample defined the initial level of test compound. The remaining coverslips were then placed in the water-cooled chamber of the exposure platform of a Suntest CPS illuminator (Heraeus Instruments GmbH; Bereich Original Hanau, Hersaeusstrasse R-14, Postfach 1563, D-6450 Hanau 1). The exposure platform was covered with a quartz plate and maintained at about 25° C. for the duration of the test. The Suntest CPS illuminator employs a filtered xenon lamp, which provides illumination of a similar spectrum and intensity as sunlight. Three coverslips for each test compound were removed from the illuminator at 1, 3, 6, 12, and 24 hours of continuous illumination. Approximately eight hours of illumination is equivalent to one summer day at 40° N latitude. The three coverslips from each of the illumination periods were treated as described above and analyzed by HPLC. The average HPLC peak area from each of these illumination periods represents a diminished amount of test compound when compared to the initial level of test compound as determined from the zero hour illumination sample. The percents of test compound remaining from each of these illumination periods were used to generate a degradation curve from which a half-life in hours was determined for each test compound.

| Structure (SMILES) | Percent Mortality [1] [%] | Percent Growth Inhibition [1] [%] | Percent Control TBW (Tobacco Budworm) [2] [%] | Percent Control CL (Cabbage Looper) [3] [%] | Percent Control DBM (Diamondback Moth) [4] [%] | Percent Control at 25 g (cabbage looper) [%] | Percent Control at 50 g (cabbage looper) [%] | Percent Control at 100 g (cabbage looper) [%] | Percent of Compound 12 Half-life [5] [%] | Photolysis Half-life [5] [h] |
| --- | --- | --- | --- | --- | --- | --- | --- | --- | --- | --- |
| CC1(C)Cc2cccc(OCCCCOc3c(Cl)cc(OCC=C(Cl)Cl)cc3Cl)c2O1 [Compound 12, 5-(3,3-Dichloroprop-2-enyloxy)-2-[4-(2,2-dimethyl(2,3-dihydrobenzo[2,3-b]furan-7-yloxy))butoxy]-1,3-dichlorobenzene] | 100 | 100 | 88 | 96 | 91 | 88 | 100 | 100 | 100 | 19 |
| CC1(C)Cc2cc(C(F)(F)F)cc(OCCCCOc3c(Cl)cc(OCC=C(Cl)Cl)cc3Cl)c2O1 [Compound 20, 5-(3,3-dichloroprop-2-enyloxy)-2-{4-[2,2-dimethyl-5-(trifluoromethyl)(2,3-dihydrobenzo[2,3-b]furan-7-yloxy)]-butoxy}1,3-dichlorobenzene] | 100 | 100 | – | – | – | – | – | – | – | – |
| CC1(C)Cc2cccc(OC(=O)NCCCOc3c(Cl)cc(OCC=C(Cl)Cl)cc3Cl)c2O1 [Compound 53, N-{3-[4-(3,3-dichloroprop-2-enyloxy)-2,6-dichlorophenoxy]propyl}(2,2-dimethyl(2,3-dihydrobenzo[2,3-b]furan-7-yloxy))-carboxamide] | 100 | 100 | – | – | – | – | – | – | – | – |
| ClC(Cl)=CCOc1cc(Cl)c(OCCCCOc2cccc3ccoc23)c(Cl)c1 [Compound W] | – | – | 62 | 20 | 60 | – | – | – | 58 | 11 |
| Cc1cc2cccc(OCCCCOc3c(Cl)cc(OCC=C(Cl)Cl)cc3Cl)c2o1 [X] | – | – | 96 | 50 | 85 | 8 | 8 | 13 | 32 | 6 |
| ClC(Cl)=CCOc1cc(Cl)c(OCCCCCc2cc3ccccc3o2)c(Cl)c1 [Y] | – | – | 5 | – | – | – | – | – | 21 | 4 |
| ClC(Cl)=CCOc1cc(Cl)c(OCCCCOc2cccc3occc23)c(Cl)c1 [Z] | – | – | 60 | 20 | 60 | – | – | – | 21 | 4 |
